Measured values published in patent US9113629B2, “4-amino-6-(4-substituted-phenyl)-picolinates and 6-amino-2-(4-substituted-phenyl)-pyrimidine-4-carboxylates and their use as herbicides” (DOW AGROSCIENCES LLC, priority 2013, dated 2015).

Tested on: LOLSS: ryegrass including, Italian ryegrass (Lolium multiflorum), rigid ryegrass (Lolium rigidum), annual ryegrass (Lolium multiflorum subsp. Gaudini)
Assay: Post-emergent Test III, herbicidal activity in wheat and barley
Assay type: in vivo
Conditions: Table 9; dose for 50 percent growth reduction, probit analysis; 21 d
How it was run: (§1)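 GR20, GR50, GR80 and GR90 come from probit analysis of visual injury scores (0 = none, 100 = complete kill) taken 21 d after treatment. Foliar application was by track sprayer delivering 187 L/ha at five rates, from high down to 1/16×, onto greenhouse plants at the 2–3 leaf stage, with solvent-blank controls.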
With `C#Cc1ccc(-c2nc(N)c(OC)c(C(=O)O)n2)c(F)c1F` [Compound 154] the “GR50 LOLSS” value was >140 g ai/ha.
With `Nc1cc(-c2ccc(Br)cc2)nc(C(=O)O)c1Cl` [Compound 168] the “GR50 LOLSS” value was 108 g ai/ha.

Same assay, conditions: Table 9; dose for 80 percent growth reduction, probit analysis; 21 d
For `C#Cc1ccc(-c2nc(N)c(OC)c(C(=O)O)n2)c(F)c1F` [Compound 154], the “GR80 LOLSS” value was >140 g ai/ha.
In the case of `Nc1cc(-c2ccc(Br)cc2)nc(C(=O)O)c1Cl` [Compound 168], the “GR80 LOLSS” value is reported as >140 g ai/ha.

Tested on: HORSS: barley, including spring and winter (Hordeum vulgare)
Assay: as above
Assay type: in vivo
Conditions: Hordeum vulgare, post-emergence, 504 h; Table 9; 35 g ai/ha; post-emergent; 21 d; read-out: Visual Growth Reduction (%) 21 Days After Application HORSS
How it was run: as §1
For `C#Cc1ccc(-c2nc(N)c(OC)c(C(=O)O)n2)c(F)c1F` [Compound 154], the pest or weed control at 35 g/ha was 0 to 29%.
Work on `Nc1cc(-c2ccc(Br)cc2)nc(C(=O)O)c1Cl` [Compound 168] yielded a pest or weed control at 35 g/ha of 85 to 94%.

Same assay, conditions: Hordeum vulgare, post-emergence, 504 h; Table 9; 70 g ai/ha; post-emergent; 21 d; read-out: Visual Growth Reduction (%) 21 Days After Application HORSS
Work on `C#Cc1ccc(-c2nc(N)c(OC)c(C(=O)O)n2)c(F)c1F` [Compound 154] yielded a pest or weed control at 70 g/ha of 0 to 29%.
`Nc1cc(-c2ccc(Br)cc2)nc(C(=O)O)c1Cl` [Compound 168] gave a pest or weed control at 70 g/ha of 95 to 100%.

Same assay, conditions: Hordeum vulgare, post-emergence, 504 h; Table 9; 140 g ai/ha; post-emergent; 21 d; read-out: Visual Growth Reduction (%) 21 Days After Application HORSS
`C#Cc1ccc(-c2nc(N)c(OC)c(C(=O)O)n2)c(F)c1F` [Compound 154] gave a pest or weed control at 140 g/ha of 45 to 59%.

Same assay, conditions: Table 9; dose for 20 percent growth reduction, probit analysis; 21 d
For `C#Cc1ccc(-c2nc(N)c(OC)c(C(=O)O)n2)c(F)c1F` [Compound 154], the “GR20 HORSS” value was 81 g ai/ha.
In the case of `Nc1cc(-c2ccc(Br)cc2)nc(C(=O)O)c1Cl` [Compound 168], the “GR20 HORSS” value is reported as 1 g ai/ha.

Tested on: not listed separately
Assay: as above
Assay type: in vivo, Lolium multiflorum, Lolium rigidum
Conditions: Lolium multiflorum, post-emergence, 504 h; Table 9; 35 g ai/ha; post-emergent; 21 d; read-out: Visual Growth Reduction (%) 21 Days After Application LOLSS
How it was run: as §1
`C#Cc1ccc(-c2nc(N)c(OC)c(C(=O)O)n2)c(F)c1F` [Compound 154] gave a pest or weed control at 35 g/ha of 0 to 29%.
Work on `Nc1cc(-c2ccc(Br)cc2)nc(C(=O)O)c1Cl` [Compound 168] yielded a pest or weed control at 35 g/ha of 0 to 29%.

Same assay, conditions: Lolium multiflorum, post-emergence, 504 h; Table 9; 70 g ai/ha; post-emergent; 21 d; read-out: Visual Growth Reduction (%) 21 Days After Application LOLSS
Compound `C#Cc1ccc(-c2nc(N)c(OC)c(C(=O)O)n2)c(F)c1F` [Compound 154] has a pest or weed control at 70 g/ha of 0 to 29%.
Work on `Nc1cc(-c2ccc(Br)cc2)nc(C(=O)O)c1Cl` [Compound 168] yielded a pest or weed control at 70 g/ha of 45 to 59%.

Same assay, conditions: Lolium multiflorum, post-emergence, 504 h; Table 9; 140 g ai/ha; post-emergent; 21 d; read-out: Visual Growth Reduction (%) 21 Days After Application LOLSS
With `C#Cc1ccc(-c2nc(N)c(OC)c(C(=O)O)n2)c(F)c1F` [Compound 154] the pest or weed control at 140 g/ha was 0 to 29%.

Tested on: APESV: bentgrass (Apera spica-venti)
Assay: as above
Assay type: in vivo
Conditions: Apera spica-venti, post-emergence, 504 h; Table 9; 35 g ai/ha; post-emergent; 21 d; read-out: Visual Growth Reduction (%) 21 Days After Application APESV
How it was run: as §1
In the case of `C#Cc1ccc(-c2nc(N)c(OC)c(C(=O)O)n2)c(F)c1F` [Compound 154], the pest or weed control at 35 g/ha is reported as 0 to 29%.
In the case of `Nc1cc(-c2ccc(Br)cc2)nc(C(=O)O)c1Cl` [Compound 168], the pest or weed control at 35 g/ha is reported as 75 to 84%.

Same assay, conditions: Apera spica-venti, post-emergence, 504 h; Table 9; 70 g ai/ha; post-emergent; 21 d; read-out: Visual Growth Reduction (%) 21 Days After Application APESV
Compound `C#Cc1ccc(-c2nc(N)c(OC)c(C(=O)O)n2)c(F)c1F` [Compound 154] has a pest or weed control at 70 g/ha of 0 to 29%.
With `Nc1cc(-c2ccc(Br)cc2)nc(C(=O)O)c1Cl` [Compound 168] the pest or weed control at 70 g/ha was 85 to 94%.

Same assay, conditions: Apera spica-venti, post-emergence, 504 h; Table 9; 140 g ai/ha; post-emergent; 21 d; read-out: Visual Growth Reduction (%) 21 Days After Application APESV
With `C#Cc1ccc(-c2nc(N)c(OC)c(C(=O)O)n2)c(F)c1F` [Compound 154] the pest or weed control at 140 g/ha was 0 to 29%.

Same assay, conditions: Table 9; dose for 50 percent growth reduction, probit analysis; 21 d
With `C#Cc1ccc(-c2nc(N)c(OC)c(C(=O)O)n2)c(F)c1F` [Compound 154] the “GR50 APESV” value was >140 g ai/ha.
For `Nc1cc(-c2ccc(Br)cc2)nc(C(=O)O)c1Cl` [Compound 168], the “GR50 APESV” value was 21 g ai/ha.

Same assay, conditions: Table 9; dose for 80 percent growth reduction, probit analysis; 21 d
For `C#Cc1ccc(-c2nc(N)c(OC)c(C(=O)O)n2)c(F)c1F` [Compound 154], the “GR80 APESV” value was >140 g ai/ha.
In the case of `Nc1cc(-c2ccc(Br)cc2)nc(C(=O)O)c1Cl` [Compound 168], the “GR80 APESV” value is reported as 57 g ai/ha.

Tested on: TRZSS: wheat, including spring and winter (Triticum aestivum)
Assay: as above
Assay type: in vivo
Conditions: Table 9; dose for 20 percent growth reduction, probit analysis; 21 d
How it was run: as §1
For `C#Cc1ccc(-c2nc(N)c(OC)c(C(=O)O)n2)c(F)c1F` [Compound 154], the “GR20 TRZSS” value was 49 g ai/ha.
For `Nc1cc(-c2ccc(Br)cc2)nc(C(=O)O)c1Cl` [Compound 168], the “GR20 TRZSS” value was 1 g ai/ha.

Same assay, conditions: Triticum aestivum, post-emergence, 504 h; Table 9; 35 g ai/ha; post-emergent; 21 d; read-out: Visual Growth Reduction (%) 21 Days After Application TRZSS
Work on `C#Cc1ccc(-c2nc(N)c(OC)c(C(=O)O)n2)c(F)c1F` [Compound 154] yielded a pest or weed control at 35 g/ha of 0 to 29%.
Work on `Nc1cc(-c2ccc(Br)cc2)nc(C(=O)O)c1Cl` [Compound 168] yielded a pest or weed control at 35 g/ha of 85 to 94%.

Same assay, conditions: Triticum aestivum, post-emergence, 504 h; Table 9; 70 g ai/ha; post-emergent; 21 d; read-out: Visual Growth Reduction (%) 21 Days After Application TRZSS
With `C#Cc1ccc(-c2nc(N)c(OC)c(C(=O)O)n2)c(F)c1F` [Compound 154] the pest or weed control at 70 g/ha was 30 to 44%.
In the case of `Nc1cc(-c2ccc(Br)cc2)nc(C(=O)O)c1Cl` [Compound 168], the pest or weed control at 70 g/ha is reported as 95 to 100%.

Same assay, conditions: Triticum aestivum, post-emergence, 504 h; Table 9; 140 g ai/ha; post-emergent; 21 d; read-out: Visual Growth Reduction (%) 21 Days After Application TRZSS
Compound `C#Cc1ccc(-c2nc(N)c(OC)c(C(=O)O)n2)c(F)c1F` [Compound 154] has a pest or weed control at 140 g/ha of 45 to 59%.

Tested on: KCHSC: kochia (Kochia scoparia)
Assay: as above
Assay type: in vivo
Conditions: Bassia scoparia, post-emergence, 504 h; Table 9; 35 g ai/ha; post-emergent; 21 d; read-out: Visual Growth Reduction (%) 21 Days After Application KCHSC
How it was run: as §1
Work on `C#Cc1ccc(-c2nc(N)c(OC)c(C(=O)O)n2)c(F)c1F` [Compound 154] yielded a pest or weed control at 35 g/ha of 0 to 29%.
Compound `Nc1cc(-c2ccc(Br)cc2)nc(C(=O)O)c1Cl` [Compound 168] has a pest or weed control at 35 g/ha of 95 to 100%.

Same assay, conditions: Bassia scoparia, post-emergence, 504 h; Table 9; 70 g ai/ha; post-emergent; 21 d; read-out: Visual Growth Reduction (%) 21 Days After Application KCHSC
For `C#Cc1ccc(-c2nc(N)c(OC)c(C(=O)O)n2)c(F)c1F` [Compound 154], the pest or weed control at 70 g/ha was 0 to 29%.
For `Nc1cc(-c2ccc(Br)cc2)nc(C(=O)O)c1Cl` [Compound 168], the pest or weed control at 70 g/ha was 95 to 100%.

Same assay, conditions: Bassia scoparia, post-emergence, 504 h; Table 9; 140 g ai/ha; post-emergent; 21 d; read-out: Visual Growth Reduction (%) 21 Days After Application KCHSC
`C#Cc1ccc(-c2nc(N)c(OC)c(C(=O)O)n2)c(F)c1F` [Compound 154] showed a pest or weed control at 140 g/ha of 0 to 29%.

Same assay, conditions: Table 9; dose for 50 percent growth reduction, probit analysis; 21 d
With `C#Cc1ccc(-c2nc(N)c(OC)c(C(=O)O)n2)c(F)c1F` [Compound 154] the “GR50 KCHSC” value was 57 g ai/ha.
With `Nc1cc(-c2ccc(Br)cc2)nc(C(=O)O)c1Cl` [Compound 168] the “GR50 KCHSC” value was 5 g ai/ha.

Same assay, conditions: Table 9; dose for 80 percent growth reduction, probit analysis; 21 d
In the case of `C#Cc1ccc(-c2nc(N)c(OC)c(C(=O)O)n2)c(F)c1F` [Compound 154], the “GR80 KCHSC” value is reported as 93 g ai/ha.
With `Nc1cc(-c2ccc(Br)cc2)nc(C(=O)O)c1Cl` [Compound 168] the “GR80 KCHSC” value was 15 g ai/ha.
